One experiment addresses T1, TLR2/6 (Mus musculus, UniProt Q9EPW9+Q9QUN7).
T1 construct: endogenous in cells; host or cells: RAW 264.7
As to the kind of experiment: TLR2/6-mediated TNF-α secretion (FSL-1), ELISA. Format: cell-based, murine. To be noted: RAW 264.7, 10 or 20 μM. How it is done:
(§1) Agonists specific to TLR1/TLR2 (Pam3CSK4), TLR2/TLR6 (FSL-1), TLR3 (Poly I:C), TLR7 (imiquimod), and TLR8 (TL8-506) were purchased from InvivoGen Ltd. (Hong-Kong, China), and a TLR4-specific agonist (LPS from E. coli O111:B4) was purchased from Sigma-Aldrich, Inc. For TLR9-specific stimulation, class C CpG-ODN (ODN2395, 5′-TCGTCGTTTTCGGCGCGCGCCG-3′) having full phosphorothioate backbone modification was synthesized (Bioneer, Inc., Daejeon, Korea). All TLR agonists were dissolved in deionized water and applied to a culture media for TLR activation. The cells were treated with test compounds or a control medium for 1 hour, and then stimulated with a TLR agonist for 4 hours, or 24 hours in the case of poly(I:C), and the cytokine secretion was monitored.
RAW 264.7 or differentiated THP-1 cell lines were seeded onto a 96-well culture plate at a density of 2×10^4 cells/well. The cells were treated with test compounds for 1 hour followed by the stimulation with TLR agonists for 4 hours. The supernatant was transferred to pre-coated assay plates, and the secretion levels of mouse and human TNF-α were measured by respective ELISA kits (Invitrogen, Carlsbad, CA, USA). […] Absorbance was measured by a microplate reader spectrophotometer (Molecular Devices, Inc., San Jose, CA, USA), and data was interpolated from a standard curve using SoftMax Pro 5.3 software (Molecular Devices, Inc.). […]
(In general: An ELISA detects its analyte on a solid surface through an enzyme-linked reagent.)

For another experiment, the target named is T2, TLR9 (Mus musculus, UniProt Q9EQU3).
T2 construct: endogenous in cells; host or cells: RAW 264.7
T2 sequence (Q9EQU3 26-1032): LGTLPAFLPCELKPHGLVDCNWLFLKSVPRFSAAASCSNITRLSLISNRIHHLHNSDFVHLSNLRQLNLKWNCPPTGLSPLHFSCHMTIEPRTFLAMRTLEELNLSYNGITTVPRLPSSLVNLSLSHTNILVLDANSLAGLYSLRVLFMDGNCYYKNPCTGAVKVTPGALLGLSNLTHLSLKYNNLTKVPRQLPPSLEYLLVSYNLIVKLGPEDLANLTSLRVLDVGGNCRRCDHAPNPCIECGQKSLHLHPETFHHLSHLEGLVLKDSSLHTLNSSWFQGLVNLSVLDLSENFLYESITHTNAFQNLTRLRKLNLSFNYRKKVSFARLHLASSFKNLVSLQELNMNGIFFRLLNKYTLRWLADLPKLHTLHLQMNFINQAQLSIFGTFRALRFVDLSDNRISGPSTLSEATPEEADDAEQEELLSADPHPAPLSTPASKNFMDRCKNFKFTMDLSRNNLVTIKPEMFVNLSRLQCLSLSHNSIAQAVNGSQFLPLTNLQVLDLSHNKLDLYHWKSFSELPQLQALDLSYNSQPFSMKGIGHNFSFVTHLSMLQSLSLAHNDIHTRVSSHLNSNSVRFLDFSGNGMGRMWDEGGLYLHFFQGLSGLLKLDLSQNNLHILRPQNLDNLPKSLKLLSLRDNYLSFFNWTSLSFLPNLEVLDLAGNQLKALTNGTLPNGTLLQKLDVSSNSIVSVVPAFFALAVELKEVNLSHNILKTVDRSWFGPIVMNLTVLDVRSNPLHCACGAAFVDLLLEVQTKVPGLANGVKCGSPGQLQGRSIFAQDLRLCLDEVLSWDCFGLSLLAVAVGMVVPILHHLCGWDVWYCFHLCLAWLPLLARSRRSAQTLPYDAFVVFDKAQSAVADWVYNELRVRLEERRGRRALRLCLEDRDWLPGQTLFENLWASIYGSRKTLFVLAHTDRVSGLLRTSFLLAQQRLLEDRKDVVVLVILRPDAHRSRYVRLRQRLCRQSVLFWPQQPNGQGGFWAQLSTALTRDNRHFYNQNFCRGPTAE
As to the kind of experiment: TLR9-mediated TNF-α secretion (ODN2395 stimulation), ELISA. It counts as cell-based, murine. The method, then: as §1
RAW 264.7 or differentiated THP-1 cell lines were seeded onto a 96-well culture plate at a density of 2×10^4 cells/well. The cells were treated with test compounds for 1 hour followed by the stimulation with TLR agonists for 4 hours. The supernatant was transferred to pre-coated assay plates, and the secretion levels of mouse and human TNF-α were measured by respective ELISA kits (Invitrogen, Carlsbad, CA, USA). All experiments were performed according to the manufacturer's instructions. Absorbance was measured by a microplate reader spectrophotometer (Molecular Devices, Inc., San Jose, CA, USA), and data was interpolated from a standard curve using SoftMax Pro 5.3 software (Molecular Devices, Inc.).
In order to evaluate the antagonistic effect of each compound on TLR7/TLR9 through ELISA (enzyme-linked immunosorbent assay), RAW 264.7 cells were pretreated with the eight compounds followed by the stimulation with a TLR7-specific agonist (imiquimod, 3.61 μM) or with a TLR9-specific agonist (ODN2395, 0.5 μM). […] Since the two ligands had no agonistic effect per se (FIG. 3B), the increased cytokine production may be due to cell activation (or non-specific cellular stress) by co-treatment. Consequently, TIC10 was selected as the most suitable lead for further optimization to improve the inhibitory potency against both TLR7 and TLR9.

Entries after “also recorded” stand apart in the source; their conditions may differ.

These results are taken from US12565475B2, “Small molecule compound inhibiting signal transmission path of TLR7 and TLR9 and use thereof” (AJOU UNIVERSITY INDUSTRY-ACADEMIC COOPERATION FOUNDATION, priority 2019, dated 2026).

T1 sequence (Q9QUN7 25-784): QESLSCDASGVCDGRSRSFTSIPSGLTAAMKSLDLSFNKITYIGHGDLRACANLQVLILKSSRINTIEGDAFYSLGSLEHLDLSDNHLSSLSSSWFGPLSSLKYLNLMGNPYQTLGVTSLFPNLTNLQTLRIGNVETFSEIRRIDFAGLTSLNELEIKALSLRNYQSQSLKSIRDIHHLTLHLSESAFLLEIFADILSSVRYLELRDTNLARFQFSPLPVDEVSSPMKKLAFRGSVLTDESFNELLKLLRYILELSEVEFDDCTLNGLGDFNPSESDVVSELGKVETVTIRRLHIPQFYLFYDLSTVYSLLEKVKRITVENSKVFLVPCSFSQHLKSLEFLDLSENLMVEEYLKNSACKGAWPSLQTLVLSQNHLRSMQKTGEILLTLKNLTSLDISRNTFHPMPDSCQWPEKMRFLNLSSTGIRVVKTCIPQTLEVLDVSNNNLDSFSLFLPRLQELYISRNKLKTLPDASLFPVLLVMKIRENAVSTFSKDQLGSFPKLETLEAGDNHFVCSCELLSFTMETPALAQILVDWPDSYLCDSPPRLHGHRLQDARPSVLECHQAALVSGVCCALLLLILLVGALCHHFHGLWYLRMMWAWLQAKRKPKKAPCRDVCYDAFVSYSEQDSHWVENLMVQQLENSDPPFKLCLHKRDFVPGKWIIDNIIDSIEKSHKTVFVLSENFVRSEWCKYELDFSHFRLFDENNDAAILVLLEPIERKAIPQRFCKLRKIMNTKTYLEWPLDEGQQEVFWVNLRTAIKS
T1 sequence (Q9EPW9 28-795): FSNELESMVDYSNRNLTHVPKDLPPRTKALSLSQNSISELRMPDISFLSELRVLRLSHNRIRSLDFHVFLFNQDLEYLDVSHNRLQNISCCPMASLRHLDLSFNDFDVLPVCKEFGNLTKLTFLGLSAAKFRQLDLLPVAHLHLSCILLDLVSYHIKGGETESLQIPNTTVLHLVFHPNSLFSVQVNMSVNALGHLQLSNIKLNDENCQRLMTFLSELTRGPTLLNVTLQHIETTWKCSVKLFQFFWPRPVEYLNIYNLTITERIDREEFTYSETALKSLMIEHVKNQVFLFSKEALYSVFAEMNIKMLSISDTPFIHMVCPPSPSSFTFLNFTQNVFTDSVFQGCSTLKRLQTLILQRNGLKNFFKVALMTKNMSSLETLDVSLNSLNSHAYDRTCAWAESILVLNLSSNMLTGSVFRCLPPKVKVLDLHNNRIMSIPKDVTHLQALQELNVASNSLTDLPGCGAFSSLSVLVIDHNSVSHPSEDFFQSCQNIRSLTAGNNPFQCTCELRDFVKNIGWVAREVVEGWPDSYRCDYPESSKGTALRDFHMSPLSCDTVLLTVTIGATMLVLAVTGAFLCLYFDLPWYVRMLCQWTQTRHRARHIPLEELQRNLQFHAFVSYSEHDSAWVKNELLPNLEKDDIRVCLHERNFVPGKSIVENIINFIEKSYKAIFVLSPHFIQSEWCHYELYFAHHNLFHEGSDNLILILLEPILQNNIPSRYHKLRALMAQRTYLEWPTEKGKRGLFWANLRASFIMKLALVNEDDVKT

One may read the IC50 as the concentration that inhibits the measured activity by half. Take `COc1ccc(CNc2ncc(-c3ccc4c(c3)OCO4)n2C)c(OC)c1` [TIC10-7, 5-(2H-1,3-benzodioxol-5-yl)-N-[(2,4-dimethoxyphenyl)methyl]-1-methyl-1H-imidazol-2-amine]: on TLR2/6, the “effect on TLR2/6-mediated cytokine (TNF-α) production” value was “no effect”. For the same molecule, the “TLR9-mediated TNF-α secretion” value on TLR9 (RAW 264.7, 10 or 20 μM, ODN2395 (receptor specificity, FIG. 6)) is given as “moderately reduced”. Also, at TLR9 (RAW 264.7, 10 or 50 μM, ODN2395 (FIG. 4A)), the “inhibitory efficacy on TLR9-mediated TNF-α secretion” value is “improved inhibitory efficacy compared to TIC10; also recorded: significant reduction”. For the same molecule, at TLR9 (RAW 264.7, ODN2395 (FIG. 4C)), inhibition was half-maximal at 6.71 µM (IC50).
